From patent publication US20150203807A1, “INACTIVATION OF A […] USING A FATTY ACID” (NOVOZYMES A/S, priority 2012, published 2015) come the findings set out here.

For this assay, the system named is Trichoderma reesei microbial host cells. Description: Inactivation of the microbial host cells in fermentation broth (growth on agar plates). The settings on record: hexanoic acid at 0.09%, 0.28%, 0.46%, 0.65% (w/w) in fermentation broth; pH 4.5; 24 hrs constant stirring at room temperature; samples incubated for 4 days at 30 degrees Celsius. It counts as cell-based. On the procedure:
The fatty acid is added to the fermentation broth at various concentrations (0.09% (w/w); 0.28% (w/w); 0.46% (w/w); 0.65% (w/w)).
pH is adjusted to 4.5 using an aqueous solution of acetic acid (CAS 64-19-7) and/or aqueous sodium hydroxide (CAS 1310-73-2).
The fermentation broth with the various concentrations of the fatty acid is left at pH 4.5 for 24 hrs with constant stirring at room temperature.
The fermentation broth is tested after 24 hrs and inactivation of the microbial host cells is successful if there is no growth on agar plates—samples are incubated for 4 days at 30 degrees Celsius.
Hexanoic acid (100% sol., CAS 142-62-1) was added to the fermentation broth at various concentrations (0.09% (w/w); 0.28% (w/w); 0.46% (w/w); 0.65% (w/w)).
pH was adjusted to 4.5 using an aqueous solution of acetic acid (CAS 64-19-7) and/or aqueous sodium hydroxide (CAS 1310-73-2).
The fermentation broth with the various concentrations of hexanoic acid was left at pH 4.5 for 24 hrs with constant stirring at room temperature.
After 24 hrs the Trichoderma reesei microbial host cells were inactivated (no growth on agar plates—samples were incubated for 4 days at 30 degrees Celsius).

Turning to `CCCCCC(=O)O` [Hexanoic acid], the “inactivation of Trichoderma reesei microbial host cells (no growth on agar plates)” value is “inactivated”.
